Measurements published in the CheMixHub viscosity set.
± gives the uncertainty stated by the source.

Test: xn = mol fraction of the nth substance listed

CC(C)(C)O + c1ccccc1
Conditions | viscosity [mPa·s]
298.15 K, 101 kPa, x1 = 0.0105 | 0.5986 ± 0.016
298.15 K, 101 kPa, x1 = 0.02032 | 0.5966 ± 0.016
298.15 K, 101 kPa, x1 = 0.02705 | 0.5958 ± 0.016
298.15 K, 101 kPa, x1 = 0.03393 | 0.5954 ± 0.016
298.15 K, 101 kPa, x1 = 0.04376 | 0.5954 ± 0.016
298.15 K, 101 kPa, x1 = 0.05002 | 0.5954 ± 0.016
298.15 K, 101 kPa, x1 = 0.06281 | 0.5966 ± 0.016
298.15 K, 101 kPa, x1 = 0.07569 | 0.598 ± 0.016
298.15 K, 101 kPa, x1 = 0.08395 | 0.5995 ± 0.016
298.15 K, 101 kPa, x1 = 0.1597 | 0.6201 ± 0.016
298.15 K, 101 kPa, x1 = 0.2472 | 0.6577 ± 0.017
298.15 K, 101 kPa, x1 = 0.5139 | 0.886 ± 0.023
298.15 K, 101 kPa, x1 = 0.9027 | 2.579 ± 0.068
303 K, 101.3 kPa, x2 = 0.1001 | 2.487 ± 0.072
303 K, 101.3 kPa, x2 = 0.2137 | 1.787 ± 0.057
303 K, 101.3 kPa, x2 = 0.3033 | 1.395 ± 0.049
303 K, 101.3 kPa, x2 = 0.4117 | 1.08 ± 0.044
303 K, 101.3 kPa, x2 = 0.5129 | 0.8736 ± 0.041
303 K, 101.3 kPa, x2 = 0.6126 | 0.7351 ± 0.039
303 K, 101.3 kPa, x2 = 0.7187 | 0.6441 ± 0.038
303 K, 101.3 kPa, x2 = 0.8046 | 0.6103 ± 0.037
303 K, 101.3 kPa, x2 = 0.8998 | 0.5822 ± 0.037
303.2 K, 101.33 kPa, x2 = 0.05 | 2.528 ± 0.017
303.2 K, 101.33 kPa, x2 = 0.1 | 1.968 ± 0.013
303.2 K, 101.33 kPa, x2 = 0.15 | 1.598 ± 0.011
303.2 K, 101.33 kPa, x2 = 0.2 | 1.356 ± 0.009
303.2 K, 101.33 kPa, x2 = 0.3 | 1.06 ± 0.007
303.2 K, 101.33 kPa, x2 = 0.4 | 0.87 ± 0.006
303.2 K, 101.33 kPa, x2 = 0.5 | 0.753 ± 0.005
303.2 K, 101.33 kPa, x2 = 0.6 | 0.671 ± 0.005
303.2 K, 101.33 kPa, x2 = 0.7 | 0.609 ± 0.004
303.2 K, 101.33 kPa, x2 = 0.8 | 0.57 ± 0.004
303.2 K, 101.33 kPa, x2 = 0.85 | 0.559 ± 0.004
303.2 K, 101.33 kPa, x2 = 0.9 | 0.553 ± 0.004
303.2 K, 101.33 kPa, x2 = 0.95 | 0.552 ± 0.004

Nc1ccccc1 + CN1CCCC1=O
viscosity [mPa·s], 101 kPa
Conditions | x2 = 0.0954 | x2 = 0.1918 | x2 = 0.2892 | x2 = 0.3876 | x2 = 0.487 | x2 = 0.5875 | x2 = 0.689 | x2 = 0.7915 | x2 = 0.8952
303.15 K | 2.963 ± 0.029 | 2.89 ± 0.029 | 2.81 ± 0.028 | 2.705 ± 0.028 | 2.55 ± 0.027 | 2.34 ± 0.026 | 2.15 ± 0.025 | 1.964 ± 0.025 | 1.76 ± 0.024
308.15 K | 2.57 ± 0.027 | 2.51 ± 0.027 | 2.445 ± 0.027 | 2.34 ± 0.026 | 2.187 ± 0.025 | 2.035 ± 0.025 | 1.875 ± 0.024 | 1.736 ± 0.024 | 1.571 ± 0.023
313.15 K | 2.25 ± 0.026 | 2.2 ± 0.026 | 2.13 ± 0.025 | 2.05 ± 0.025 | 1.95 ± 0.025 | 1.83 ± 0.024 | 1.7 ± 0.024 | 1.58 ± 0.023 | 1.445 ± 0.023
318.15 K | 1.99 ± 0.025 | 1.94 ± 0.025 | 1.89 ± 0.024 | 1.825 ± 0.024 | 1.735 ± 0.024 | 1.623 ± 0.023 | 1.52 ± 0.023 | 1.417 ± 0.023 | 1.309 ± 0.022

COCCOCCOCCOC + O
viscosity [mPa·s], 101.33 kPa
Conditions | 298 K | 298.15 K
x1 = 0.0057 | – | 1.058 ± 0.008
x1 = 0.0077 | 1.15 ± 0.03 | –
x1 = 0.0124 | – | 1.278 ± 0.008
x1 = 0.0143 | 1.38 ± 0.036 | –
x1 = 0.0176 | – | 1.444 ± 0.009
x1 = 0.0247 | – | 1.737 ± 0.011
x1 = 0.0255 | 1.83 ± 0.048 | –
x1 = 0.0326 | – | 2.063 ± 0.013
x1 = 0.0455 | – | 2.613 ± 0.015
x1 = 0.0484 | 2.79 ± 0.073 | –
x1 = 0.0673 | – | 3.462 ± 0.02
x1 = 0.0796 | 3.89 ± 0.1 | –
x1 = 0.0814 | 3.95 ± 0.1 | –
x1 = 0.0826 | – | 4.032 ± 0.022
x1 = 0.0934 | 4.25 ± 0.11 | –
x1 = 0.1017 | – | 4.344 ± 0.024
x1 = 0.1022 | 4.4 ± 0.12 | –
x1 = 0.1092 | 4.49 ± 0.12 | –
x1 = 0.1166 | 4.6 ± 0.12 | –
x1 = 0.1215 | – | 4.581 ± 0.025
x1 = 0.1407 | 4.68 ± 0.12 | –
x1 = 0.1423 | – | 4.678 ± 0.026
x1 = 0.1607 | – | 4.625 ± 0.026
x1 = 0.1731 | 4.63 ± 0.12 | –
x1 = 0.1907 | – | 4.512 ± 0.025
x1 = 0.2117 | 4.39 ± 0.11 | –
x1 = 0.2288 | – | 4.179 ± 0.023
x1 = 0.2745 | 3.87 ± 0.1 | 3.819 ± 0.021
x1 = 0.3074 | – | 3.588 ± 0.02
x1 = 0.3483 | 3.29 ± 0.086 | –
x1 = 0.3653 | – | 3.236 ± 0.018
x1 = 0.4097 | – | 3.035 ± 0.017
x1 = 0.4311 | 2.9 ± 0.076 | –
x1 = 0.4857 | – | 2.706 ± 0.016
x1 = 0.5899 | 2.41 ± 0.063 | –
x1 = 0.593 | – | 2.398 ± 0.014
x1 = 0.6382 | – | 2.311 ± 0.014
x1 = 0.702 | – | 2.269 ± 0.014
x1 = 0.745 | 2.16 ± 0.056 | –
x1 = 0.7475 | – | 2.22 ± 0.013
x1 = 0.7813 | – | 2.166 ± 0.013
x1 = 0.7839 | 2.1 ± 0.055 | –
x1 = 0.8141 | – | 2.121 ± 0.013
x1 = 0.8687 | 2.04 ± 0.053 | –
x1 = 0.8937 | – | 2.068 ± 0.013
x1 = 0.9665 | – | 2.035 ± 0.013

OC[C@H]1O[C@@H]2O[C@H]3[C@H](O)[C@@H](O)[C@@H](O[C@H]4[C@H](O)[C@@H](O)[C@@H](O[C@H]5[C@H](O)[C@@H](O)[C@@H](O[C@H]6[C@H](O)[C@@H](O)[C@@H](O[C@H]7[C@H](O)[C@@H](O)[C@@H](O[C@H]8[C@H](O)[C@@H](O)[C@@H](O[C@H]1[C@H](O)[C@H]2O)O[C@@H]8CO)O[C@@H]7CO)O[C@@H]6CO)O[C@@H]5CO)O[C@@H]4CO)O[C@@H]3CO + O
viscosity [mPa·s], 101 kPa
Conditions | 298.15 K | 310.15 K
x1 = 7.87e-06 | 0.8909 ± 0.006 | 0.6934 ± 0.0049
x1 = 8.39e-06 | 0.891 ± 0.006 | 0.6935 ± 0.0049
x1 = 1.613e-05 | 0.8917 ± 0.006 | 0.6944 ± 0.0049
x1 = 1.679e-05 | 0.8918 ± 0.006 | 0.6945 ± 0.0049
x1 = 3.14e-05 | 0.8931 ± 0.006 | 0.6962 ± 0.0049
x1 = 6.268e-05 | 0.8961 ± 0.0061 | 0.6998 ± 0.005
x1 = 6.666e-05 | 0.8964 ± 0.0061 | 0.7003 ± 0.005
x1 = 0.0001254 | 0.9019 ± 0.0061 | 0.7071 ± 0.005
x1 = 0.0001309 | 0.9024 ± 0.0061 | 0.7078 ± 0.005
x1 = 0.0001573 | 0.9049 ± 0.0061 | 0.7109 ± 0.005
x1 = 0.0001654 | 0.9057 ± 0.0061 | 0.7118 ± 0.005
x1 = 0.0001906 | 0.908 ± 0.0061 | 0.7148 ± 0.005
x1 = 0.0002383 | 0.9125 ± 0.0062 | 0.7203 ± 0.0051

O=S(=O)([O-])NC1CCCCC1.[Li+] + O
viscosity [mPa·s], 101 kPa
Conditions | x1 = 0.002028 | x1 = 0.002453 | x1 = 0.00294 | x1 = 0.003377 | x1 = 0.003805 | x1 = 0.004126 | x1 = 0.00489
293.15 K | 1.078 ± 0.0072 | 1.095 ± 0.0073 | 1.115 ± 0.0074 | 1.133 ± 0.0075 | 1.151 ± 0.0076 | 1.164 ± 0.0077 | 1.197 ± 0.0079
298.15 K | 0.956 ± 0.0064 | 0.9707 ± 0.0065 | 0.9874 ± 0.0066 | 1.002 ± 0.0067 | 1.018 ± 0.0068 | 1.029 ± 0.0069 | 1.058 ± 0.007
303.15 K | 0.8547 ± 0.0058 | 0.8675 ± 0.0059 | 0.8819 ± 0.006 | 0.8949 ± 0.0061 | 0.9081 ± 0.0061 | 0.9174 ± 0.0062 | 0.9409 ± 0.0063
313.15 K | 0.6978 ± 0.0049 | 0.7075 ± 0.0049 | 0.7186 ± 0.005 | 0.7288 ± 0.0051 | 0.739 ± 0.0051 | 0.7458 ± 0.0052 | 0.7652 ± 0.0053
323.15 K | 0.5823 ± 0.0042 | 0.5898 ± 0.0042 | 0.5985 ± 0.0043 | 0.6067 ± 0.0043 | 0.6147 ± 0.0044 | 0.6202 ± 0.0044 | 0.6355 ± 0.0045

Nc1ccccc1 + Cc1cccc(C)c1
303 K, 101.33 kPa
Conditions | viscosity [mPa·s]
x1 = 0.1 | 0.815 ± 0.084
x1 = 0.2 | 1.025 ± 0.11
x1 = 0.3 | 1.316 ± 0.14
x1 = 0.4 | 1.708 ± 0.18
x1 = 0.5 | 2.076 ± 0.22
x1 = 0.6 | 2.225 ± 0.23
x1 = 0.7 | 2.432 ± 0.25
x1 = 0.8 | 2.675 ± 0.28
x1 = 0.9 | 2.875 ± 0.3

Nc1ccccc1 + CC(C)=O
298.15 K, 101 kPa
Conditions | viscosity [mPa·s]
x1 = 0.0833 | 0.3644 ± 0.004
x1 = 0.1692 | 0.4238 ± 0.0045
x1 = 0.2591 | 0.5074 ± 0.0052
x1 = 0.3523 | 0.6194 ± 0.0062
x1 = 0.4492 | 0.7717 ± 0.0075
x1 = 0.5502 | 0.9752 ± 0.0092
x1 = 0.6556 | 1.252 ± 0.012
x1 = 0.7653 | 1.679 ± 0.015
x1 = 0.8805 | 2.259 ± 0.02
